Reference: patent US4182896A, “Indane derivatives” (Societe Hexachimie, priority 1974, dated 1980)
Where a name gives a salt, the structure may show the parent alone.

How the values were obtained:
[1] = test system: SPF male rats, OFA strain; assay: Anti-inflammatory activity: paw swelling after subcutaneous plantar injection of carraghenine, oral administration; type: in vivo; settings: for inhibition in vivo at 32 mg/kg: 32 mg/kg oral; for ED50: read-out: ED50 (50% effective dose), anti-inflammatory
Procedure: Anti-inflammatory activity
The products to be tested are administered orally to batches of 12 SPF male rats, OFA strain, weighing 120-130 g, 2 hours and 30 minutes (1/2 dose each time) before the subcutaneous plantar injection of 0.05 ml of a 1% strength solution of carraghenine. The volume of the back paw which received the phlogogenic agent is measured at regular intervals. The 50% effective dose is calculated at the moment of greatest swelling of the controls.
The results are given in Tables I to IV below, in which the percentage reduction in the inflammation is noted.

[2] = test system: male mice (SPF1, OF1 strain); assay: Analgesic activity: inhibition of pain reactions (abdominal twistings) after intraperitoneal phenylbenzoquinone, oral administration; type: in vivo; settings: for inhibition in vivo at 8 mg/kg: 8 mg/kg oral; for ED50: read-out: ED50 (50% effective dose), analgesic; for inhibition in vivo at 4 mg/kg: 4 mg/kg oral; for percentage inhibition of pain reactions: mouse
Procedure: The products tested are administered orally to batches of 6 male mice (SPF1, OF1 strain) weighing 19-20 g.
1 hour later, 0.3 ml of a 0.02% strength solution of phenylbenzoquinone is injected intraperitoneally into each mouse and, from the 5th to the 10th minute after the latter treatment, the number of pain reactions (abdominal twistings) is counted.
Table V to VIII below give the percentage inhibition of these reactions.

[3] = Rattus norvegicus, po, 16 mg/kg oral, carraghenine, read-out: percentage reduction in the inflammation
[4] = Rattus norvegicus, po, carraghenine, read-out: percentage reduction in the inflammation
[5] = Rattus norvegicus, po, 64 mg/kg oral, carraghenine, read-out: percentage reduction in the inflammation
[6] = Rattus norvegicus, po, 128 mg/kg oral, carraghenine, read-out: percentage reduction in the inflammation
[7] = Rattus norvegicus, po, 256 mg/kg oral, carraghenine, read-out: percentage reduction in the inflammation
[8] = Rattus norvegicus, po, at the moment of greatest swelling of the controls
[9] = Mus musculus, po, read-out: percentage inhibition of pain reactions
[10] = Mus musculus, po, 16 mg/kg oral, read-out: percentage inhibition of pain reactions
[11] = Mus musculus, po, 32 mg/kg oral, read-out: percentage inhibition of pain reactions
[12] = Mus musculus, po, 64 mg/kg oral, read-out: percentage inhibition of pain reactions
[13] = Rattus norvegicus, po, 4 mg/kg oral, carraghenine, read-out: percentage reduction in the inflammation
[14] = Mus musculus, po, 128 mg/kg oral, read-out: percentage inhibition of pain reactions

Compound	inhibition in vivo at 16 mg/kg [1, 3] [%]	inhibition in vivo at 64 mg/kg [1, 5] [%]	inhibition in vivo at 128 mg/kg [1, 6] [%]	inhibition in vivo at 256 mg/kg [1, 7] [%]	ED50 [1, 8] [mg/kg]	inhibition in vivo at 8 mg/kg [2, 9] [%]	inhibition in vivo at 16 mg/kg [2, 10] [%]	inhibition in vivo at 32 mg/kg [2, 11] [%]	inhibition in vivo at 64 mg/kg [2, 12] [%]	ED50 ([2]; Mus musculus, po) [mg/kg]	inhibition in vivo at 4 mg/kg [1, 13] [%]	also measured
CCC1Cc2ccc(C(C)C(=O)OCCN3CCOCC3)cc2C1 (stereo not drawn) [Example 26, Oxalate of the morpholino-ethyl ester of 2-methyl-[2-ethyl-indanyl-(5)]-acetic acid]	38	54	68	70	40	17	52	69	94	18		inhibition in vivo at 32 mg/kg [1, 4]: 47%
CC(C(=O)OCCN(C)C)c1ccc2c(c1)CC(C(C)C)C2 (stereo not drawn) [Example 27, Hydrochloride of the dimethylaminoethyl ester of 2-methyl-[2-isopropyl-indanyl-(5)]-acetic acid]	54	61	64	76	22	7	42	69	94		29	inhibition in vivo at 128 mg/kg [2, 14]: 99%
CCN(CC)CCOC(=O)C(C)c1ccc2c(c1)CC(C(C)C)C2 (stereo not drawn) [Example 28, Oxalate of the diethylaminoethyl ester of 2-methyl-[2-isopropylindanyl-(5)]-acetic acid]	31	66	72	79	24	20	40	66	86	20	37	inhibition in vivo at 4 mg/kg [2, 9]: 21%
CC(C(=O)OC(C)(C)CN(C)C)c1ccc2c(c1)CC(C(C)C)C2.O=C(O)/C=C\C(=O)O (stereo not drawn) [Example 29, Maleate of the dimethylamino-α-dimethyl-ethyl ester of 2-methyl-[2-isopropyl-indanyl-(5)]-acetic acid]												percentage reduction in the inflammation ([1]; 4 mg/kg oral, rat, carraghenine): 12%; percentage reduction in the inflammation ([1]; 16 mg/kg oral, rat, carraghenine): 35%; percentage reduction in the inflammation ([1]; 64 mg/kg oral, rat, carraghenine): 45%; percentage reduction in the inflammation ([1]; 128 mg/kg oral, rat, carraghenine): 72%; percentage reduction in the inflammation ([1]; 256 mg/kg oral, rat, carraghenine): 65%; ED50 (50% effective dose), anti-inflammatory ([1]; oral, rat, at the moment of greatest swelling of the controls): 55 mg/kg; percentage inhibition of pain reactions ([2]; 16 mg/kg oral): 8%; percentage inhibition of pain reactions ([2]; 32 mg/kg oral): 43%; percentage inhibition of pain reactions ([2]; 64 mg/kg oral): 57%; percentage inhibition of pain reactions ([2]; 128 mg/kg oral): 86%; percentage inhibition of pain reactions ([2]; 256 mg/kg oral): 96%
CC(C(=O)OCCN1CCCCC1)c1ccc2c(c1)CC(C(C)C)C2 (stereo not drawn) [Example 30, Oxalate of the piperidine-ethyl ester of 2-methyl-[2-isopropyl-indanyl-(5)]-acetic acid]	32	55	47	52			11	32	73	37	10	inhibition in vivo at 128 mg/kg [2, 14]: 99%
CC(C(=O)OCCN1CCCC1)c1ccc2c(c1)CC(C(C)C)C2 (stereo not drawn) [Example 32, Maleate of the pyrrolidino-ethyl ester of 2-methyl-[2-isopropyl-indanyl-(5)]-acetic acid]	21	59	55		65	6	47	79	99	18	19	
CC(CO)c1ccc2c(c1)CC(C(C)C)C2 (stereo not drawn) [Example 33, 2-Methyl-β-[2-isopropyl-indanyl-(5)]-ethanol]	13	52	58	63	85	42	68	90		9		inhibition in vivo at 8 mg/kg ([1]; Rattus norvegicus, po, 8 mg/kg oral, carraghenine, read-out: percentage reduction in the inflammation): 0%; inhibition in vivo at 32 mg/kg [1, 4]: 34%; inhibition in vivo at 2 mg/kg ([2]; Mus musculus, po, 2 mg/kg oral, read-out: percentage inhibition of pain reactions): 6%; inhibition in vivo at 4 mg/kg [2, 9]: 25%
